The target of this experiment is HER2-Fc (HER2) (Homo sapiens, UniProt P04626). Particulars: SEM, n = 3.
In turn, “FN3 with RKPKSG grafted at residues 51-56 (His-tagged) [FN3-p4.4]” registered a Kd of 0.5 ± 0.15 µM.

Take “FN3 with YCGCEM grafted at residues 51-56 (His-tagged) [FN3-p1]”: the Kd was 0.28 ± 0.023 µM. Against the preceding substance, the Kd is about 1.8-fold lower.

“FN3 with YCICCM grafted at residues 51-56 (His-tagged) [FN3-p1.M.1]” came in with a Kd of 0.068 ± 0.014 µM.

Consider “FN3 with YCPVCM grafted at residues 51-56 (His-tagged) [FN3-p1.M.3]”, for which the Kd stood at 0.11 ± 0.028 µM.

The term Kd denotes the free concentration of one partner at which half of the binding sites on the other are occupied at equilibrium, for simple one-to-one binding.

The values are drawn from paper PMC9052545 (RSC Advances, 2020).
